Reference: patent US20090149482A1, “STEREOCHEMICALLY DEFINED DIPEPTIDE ESTERS OF ANTIVIRAL AGENTS FOR ENHANCED OCULAR TREATMENT” (priority 2001, published 2009)
Read-outs that look alike come from different tables or passages of the source. Marks after values point to notes of the source that are not given here. Where a SMILES comes first, the peptide text is derived from it. [ ]: non-standard residue; d: D form. Sar = CNCC(=O)O

Experiments:
HCMV = test: In vitro antiviral screening, CPE inhibition in HFF cells; type: cell-based, human cytomegalovirus; settings: Human betaherpesvirus 5, HFF; HCMV, CPE Inhibition
hPEPT1 = target: T1, hPEPT1 (Homo sapiens, UniProt P46059); test: [3H] Glycylsarcosine uptake and its inhibition in Caco-2 cells (affinity towards peptide transporter); type: cell-based; settings: for effect on the uptake of [3H] Gly-Sar: Caco-2, pH 6.0, 10 minutes; for Ki: read-out: Ki
T1 construct: endogenous in cells; host or cells: Caco-2 (human colon carcinoma, ATCC)
T1 sequence (P46059 1-708): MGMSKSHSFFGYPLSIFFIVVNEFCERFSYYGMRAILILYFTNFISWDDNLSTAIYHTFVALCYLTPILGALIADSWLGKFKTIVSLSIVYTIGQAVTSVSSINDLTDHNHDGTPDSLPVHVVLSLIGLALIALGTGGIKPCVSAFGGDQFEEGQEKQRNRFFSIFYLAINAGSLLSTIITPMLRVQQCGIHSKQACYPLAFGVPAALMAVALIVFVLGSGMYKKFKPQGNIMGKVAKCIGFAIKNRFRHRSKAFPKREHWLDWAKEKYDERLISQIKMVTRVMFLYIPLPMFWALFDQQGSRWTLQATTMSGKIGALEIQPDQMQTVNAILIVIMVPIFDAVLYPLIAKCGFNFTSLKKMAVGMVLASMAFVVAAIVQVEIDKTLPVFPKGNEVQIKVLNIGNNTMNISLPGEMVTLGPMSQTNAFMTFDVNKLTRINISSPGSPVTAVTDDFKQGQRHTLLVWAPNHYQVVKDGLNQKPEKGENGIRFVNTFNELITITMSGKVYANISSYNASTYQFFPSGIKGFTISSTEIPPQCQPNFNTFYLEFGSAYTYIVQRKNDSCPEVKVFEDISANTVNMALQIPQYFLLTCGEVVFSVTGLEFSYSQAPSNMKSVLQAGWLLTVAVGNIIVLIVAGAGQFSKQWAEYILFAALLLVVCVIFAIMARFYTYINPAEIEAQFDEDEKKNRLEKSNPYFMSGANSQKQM
Source text: Materials: [^3H] Glycylsarcosine (Gly-Sar; 4 Ci/mmol) was purchased from Moravek Biochemicals (Brea, Calif.) and [^14C] Mannitol (50 mCi/mmol) was supplied by Amersham (Piscataway, N.J.). Human colon carcinoma derived Caco-2 cells were obtained from American Type Culture Collection (ATCC, Rockville, Md.). The growth medium, Dulbecco's modified Eagle Medium was obtained from Life Technologies (Grand Island, N.Y.). […] Fetal bovine serum (FBS) was purchased from JRH Biosciences (Lenexa, Kans.). Culture flasks (75 cm^2 growth area), polyester Transwells® (pore size 0.4 Cm with diameter 6.5 mm) and polyester membranes (pore size 0.4 Cm) were procured from Costar (Bedford, Mass.). The buffer components and solvents were obtained from Fisher Scientific (St. Louis, Mo.). All the di-peptide esters of acyclovir were custom synthesized in our laboratory. […] Cell Culture: All cultures were maintained in humidified incubator at 37° C. with a 5% carbon dioxide in air atmosphere. Caco-2 cells were obtained at passage 25 from American Type Culture Collection (ATCC) and grown in plastic tissue culture flasks. […] When 80% confluent, these cells were removed by treating them with Trypsin/EDTA and plated at a density of 100,000 cells/cm^2 on collagen coated plastic dishes containing clear polyester membranes (0.636 cm^2, […]) or 12-well tissue culture treated plastic plates. Cells were then grown in medium containing 10% FBS (heat-inactivated). […] [^14C] […] Metabolism studies in Cell Suspensions: Confluent Caco-2 cells, grown in tissue culture flasks were isolated with the aid of mechanical scraper and washed thrice with DPBS. […] One-hundred micro-liters of samples were withdrawn at predetermined time intervals and the sample was purified by precipitating the cellular proteins into the organic solvent mixture and stored at −80° C. until further analysis. The protein content of the cell suspension was determined by the method of Bradford using bovine serum albumin as the standard (BioRad protein estimation kit, Hercules, Calif.). […] Transport studies: Transport experiments were done using Side-Bi-Side™ diffusion cells (type VSC-1, Crown Glass Company Inc.) and Transwell® inserts. Prior to the experiment with Gly-Sar, Caco-2 cell monolayers grown on the clear polyester membranes and Transwell® inserts were washed with DPBS (pH 6.0) and incubated at 37° C. Freshly prepared drug solutions in DPBS (pH 6.0) was placed in the donor chamber and the receiver chamber was filled with DPBS. The volumes of donor and receptor chambers were 3 ml each for Side-Bi-Side™ diffusion cells and 0.5 ml and 1.5 ml respectively for Transwell® inserts. […] The samples were stored at −80° C. until analyzed HPLC. All experiments were performed at 37° C. […] The concentration dependent uptake of glycylsarcosine was studied using [^3H] […] For Dixon plots and Dose Response studies [^3H] […] Following incubation, the cell monolayers were washed three times with ice-cold HEPES buffer to terminate the uptake experiment. After the washings cells were lysed overnight using 1 ml 0.1% (w/v) Triton X-100 in 0.3 N NaOH at room temperature. Aliquots (500 μl) from each well were then transferred to scintillation vials containing 5 ml scintillation cocktail (Fisher Scientific, Fairlawn, N.J.). […] The amount of protein in the cell lysate was measured by the BioRad protein estimation kit using bovine serum albumin as standard (BioRad Protein estimation Kit, Hercules, Calif.). Analytical Procedures: All samples were assayed using HPLC. […] The column used was a C18 Luna column 4.6×250 mm (Phenomenex). The mobile phase consisted of a mixture of buffer and an organic modifier. The percentage of organic phase was varied in order to elute compounds of interest.

[1] = tested on: oligopeptide transporter on the rabbit cornea
[2] = substrate: CN(CC(=O)O)C(=O)CN; test: [3H] Glycylsarcosine uptake and its inhibition in Caco-2 cells (affinity towards peptide transporter); type: cell-based, human; settings: other: Gly-Sar alone, 37.0 °C

`Nc1nc(O)c2ncn(COC(CO)CO)c2n1` [GCV, 2-amino-1,9-[[2-hydroxy-1-(hydroxymethyl)ethoxy]methyl]-6H-purin-6-one] was tested. Which EC50 (HCMV) did it give?
Its EC50 is 0.94 µM.

Which results are given for `CN(CC(=O)O)C(=O)CN` [Gly-Sar, glycylsarcosine, reference compound] (H-Gly-[Sar]-OH)?
effect on the uptake of [3H] Gly-Sar (hPEPT1): significantly inhibited; Kd (rate constant of nonsaturable uptake component) (hPEPT1; Caco-2 uptake of glycylsarcosine): 12.2 ± 0.57 µL/min/mg; Ki (hPEPT1; Dixon): 2350 ± 670 µM; Ki (hPEPT1; Dose Response (Cheng and Prusoff from IC50)): 2490 µM; Vmax of glycylsarcosine uptake (hPEPT1; Gly-Sar alone, Michaelis-Menten): 0.078 ± 0.005 µmol/min/mg; IC50 (hPEPT1; dose response curves, read-out: IC50 of inhibition of [3H] Gly-Sar uptake): 2780 ± 340 µM

`Nc1ccc(C(=O)NCC(=O)O)cc1` [PAH, para-aminohippuric acid, reference compound] was tested. Which “transport of Val-ACV (percent of control)” value ([1]; 1 mM Val-ACV in presence of 10 mM compound) did it give?
The value was 99.6±2.6% of control.

With `CC[N+](CC)(CC)CC` [TEA, tetraethlyammonium, reference compound] as the molecule, how does the “transport of Val-ACV (percent of control)” value [1] read?
The value was 101.3±1.1% of control.

With `NCC(=O)OCCOCn1cnc2c(=O)[nH]c(N)nc21` [glycine-ACV] as the molecule, how does the “effect on the uptake of [3H] Gly-Sar” value (hPEPT1) read?
The value was “did not inhibit”.

How did the “effect on the uptake of [3H] Gly-Sar” value (hPEPT1) turn out when `Nc1nc2c(ncn2COCCOC(=O)C(N)Cc2ccc(O)cc2)c(=O)[nH]1` (stereo not drawn) [tyrosine-ACV] was run?
Its value is “did not inhibit”.

Which “effect on the uptake of [3H] Gly-Sar” value (hPEPT1) does the source give for `CC(C)[C@H](N)C(=O)N[C@H](C(=O)O)C(C)C` [val-val, reference compound] (H-Val-Val-OH) here?
Its value is “significantly inhibited”.

B1: hPEPT1 (Homo sapiens) (protein)
chain: MGMSKSHSFFGYPLSIFFIVVNEFCERFSYYGMRAILILYFTNFISWDDNLSTAIYHTFVALCYLTPILGALIADSWLGKFKTIVSLSIVYTIGQAVTSVSSINDLTDHNHDGTPDSLPVHVVLSLIGLALIALGTGGIKPCVSAFGGDQFEEGQEKQRNRFFSIFYLAINAGSLLSTIITPMLRVQQCGIHSKQACYPLAFGVPAALMAVALIVFVLGSGMYKKFKPQGNIMGKVAKCIGFAIKNRFRHRSKAFPKREHWLDWAKEKYDERLISQIKMVTRVMFLYIPLPMFWALFDQQGSRWTLQATTMSGKIGALEIQPDQMQTVNAILIVIMVPIFDAVLYPLIAKCGFNFTSLKKMAVGMVLASMAFVVAAIVQVEIDKTLPVFPKGNEVQIKVLNIGNNTMNISLPGEMVTLGPMSQTNAFMTFDVNKLTRINISSPGSPVTAVTDDFKQGQRHTLLVWAPNHYQVVKDGLNQKPEKGENGIRFVNTFNELITITMSGKVYANISSYNASTYQFFPSGIKGFTISSTEIPPQCQPNFNTFYLEFGSAYTYIVQRKNDSCPEVKVFEDISANTVNMALQIPQYFLLTCGEVVFSVTGLEFSYSQAPSNMKSVLQAGWLLTVAVGNIIVLIVAGAGQFSKQWAEYILFAALLLVVCVIFAIMARFYTYINPAEIEAQFDEDEKKNRLEKSNPYFMSGANSQKQM
notes: endogenous in cells; host or cells: Caco-2 (human colon carcinoma, ATCC)
B1 was tested. Which Km ([2]; Eadie-Hofstee) did it give?
The Km was 1.42 ± 0.19 mM.

What about the Vmax ([2]; Eadie-Hofstee) of the same molecule?
The Vmax was 0.071 µmol/min/mg.

What about the Km ([2]; Lineweaver-Burk (control)) of the same molecule?
Its Km is 2.04 ± 0.61^a mM.

And the Vmax ([2]; Lineweaver-Burk (control))?
Its Vmax is 0.086 µmol/min/mg.

What about the Km ([2]; Michaelis-Menten) of the same molecule?
Its Km is 1.63 ± 0.25 mM.

What about the Vmax ([2]; Michaelis-Menten) of the same molecule?
Its Vmax is 0.078 µmol/min/mg.
